compound: COc1cc2nc(N3CCCN(C)CC3)nc(NC3CCN(Cc4ccccc4)CC3)c2cc1OC + O=C(c1cc(Cc2n[nH]c(=O)c3ccccc23)ccc1F)N1CCN(C(=O)C2CC2)CC1 [Olaparib] (partner 8 µM); experiment: relative viability (nuclei count vs DMSO), 5 days (fraction); higher = more cells survive; conditions: first compound 0.2 µM
Procedure, shortened: (§1)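 One day after seeding in 1536-well plates, lung cancer cell lines were dosed by pin tool. Dosing was either single-drug or a fixed anchor-drug dose plus five library-drug doses (not always all listed) in √10 steps. After 5 days, nuclei were stained in one fix-and-stain step and counted on 4× images, and relative viability is the nuclei count of treated wells over that of vehicle wells, given as the median of duplicate plates.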

Cell Line	relative viability
NCI-H2342	0.482
NCI-H727	0.646
NCI-H1650	0.773
EBC-1	0.698
NCI-H1703	0.395
NCI-H1993	1.03
SW 1573	0.496
NCI-H838	0.762
LCLC-103H	0.751
NCI-H520	0.332
NCI-H2126	1.01
EMC-BAC-2	0.494
NCI-H2085	0.775
Calu-6	0.598
HCC-366	0.451
NCI-H1666	0.716
NCI-H596	0.677
LK-2	0.778
NCI-H2087	0.633
SK-MES-1	0.66

Cell Line	relative viability
H3255	0.592
COR-L23	0.348
COR-L 105	0.632
IA-LM	0.682
LOU-NH91	0.911
ChaGo-K-1	0.386
NCI-H2170	0.623
NCI-H2405	0.886
HOP-62	0.393
HCC-44	0.974
A549	0.309
NCI-H522	0.556
SW 900	0.675
NCI-H2009	0.703
NCI-H661	0.731
SK-LU-1	0.45
NCI-H1299	0.951
CAL-12T	0.676
NCI-H2228	0.637
NCI-H2023	0.424

same assay, conditions: first compound 0.6325 µM

Cell Line	relative viability
NCI-H2342	0.349
NCI-H727	0.616
NCI-H1650	0.787
EBC-1	0.647
NCI-H1703	0.334
NCI-H1993	1.05
SW 1573	0.473
NCI-H838	0.717
LCLC-103H	0.732
NCI-H520	0.321
NCI-H2126	0.892
EMC-BAC-2	0.406
NCI-H2085	0.82
Calu-6	0.542
HCC-366	0.304
NCI-H1666	0.754
NCI-H596	0.721
LK-2	0.68
NCI-H2087	0.615
NCI-H1648	0.713
SK-MES-1	0.669

Cell Line	relative viability
H3255	0.552
COR-L23	0.38
COR-L 105	0.626
IA-LM	0.75
LOU-NH91	0.918
ChaGo-K-1	0.44
NCI-H2170	0.576
NCI-H2405	0.847
HOP-62	0.202
HCC-44	1.02
A549	0.374
NCI-H522	0.788
SW 900	0.926
NCI-H2009	0.706
NCI-H661	0.713
SK-LU-1	0.384
NCI-H1299	0.909
CAL-12T	0.689
NCI-H2228	0.62
NCI-H2023	0.476

same assay, conditions: first compound 2 µM

Cell Line	relative viability
NCI-H2342	0.46
NCI-H727	0.772
NCI-H1650	0.886
EBC-1	0.757
NCI-H1703	0.365
NCI-H1993	1.14
SW 1573	0.487
NCI-H838	0.791
LCLC-103H	0.802
NCI-H520	0.324
NCI-H2126	0.883
EMC-BAC-2	0.438
NCI-H2085	0.869
Calu-6	0.591
HCC-366	0.376
NCI-H1666	0.756
NCI-H596	0.736
LK-2	0.893
NCI-H2087	0.706
SK-MES-1	0.648

Cell Line	relative viability
H3255	0.541
COR-L23	0.414
COR-L 105	0.624
IA-LM	0.831
LOU-NH91	0.968
ChaGo-K-1	0.375
NCI-H2170	0.675
NCI-H2405	0.91
HOP-62	0.355
HCC-44	0.953
A549	0.206
NCI-H522	0.58
SW 900	0.705
NCI-H2009	0.691
NCI-H661	0.822
SK-LU-1	0.564
NCI-H1299	0.997
CAL-12T	0.8
NCI-H2228	0.46
NCI-H2023	0.48

same assay, conditions: first compound 6.325 µM

Cell Line	relative viability
NCI-H2342	0.459
NCI-H727	0.59
NCI-H1650	0.648
EBC-1	0.5
NCI-H1703	0.394
NCI-H1993	1.2
SW 1573	0.125
NCI-H838	0.777
LCLC-103H	0.748
NCI-H520	0.144
NCI-H2126	0.919
EMC-BAC-2	0.511
NCI-H2085	0.785
Calu-6	0.537
HCC-366	0.294
NCI-H1666	0.751
NCI-H596	0.672
LK-2	0.867
NCI-H2087	0.594
NCI-H1648	1.01
SK-MES-1	0.0414

Cell Line	relative viability
H3255	0.562
COR-L23	0.339
COR-L 105	0.372
IA-LM	0.756
LOU-NH91	0.958
ChaGo-K-1	0.39
NCI-H2170	0.566
NCI-H2405	0.883
HOP-62	0.537
HCC-44	0.977
A549	0.368
NCI-H522	0.554
SW 900	0.677
NCI-H2009	0.631
NCI-H661	0.782
SK-LU-1	0.366
NCI-H1299	0.928
CAL-12T	0.699
NCI-H2228	0.35
NCI-H2023	0.177

compound: Cc1cc([C@@H](C)Nc2ccccc2C(=O)O)c2nc(N3CCOCC3)cc(=O)n2c1 [AZD6482] + CS(=O)(=O)N1CCN(Cc2cc3nc(-c4cccc5[nH]ncc45)nc(N4CCOCC4)c3s2)CC1 [Pictilisib] (partner 1 µM); experiment: as above; conditions: first compound 0.08 µM
Procedure, shortened: as §1

Cell Line	relative viability
NCI-H727	0.357
NCI-H1650	0.55
EBC-1	0.314
NCI-H1703	0.245
NCI-H1993	0.907
SW 1573	0.415
NCI-H838	0.461
LCLC-103H	0.6
NCI-H520	0.254
NCI-H2126	0.446
EMC-BAC-2	0.487
NCI-H2085	0.428
Calu-6	0.823
HCC-366	0.115
NCI-H1666	0.437
NCI-H596	0.324
LK-2	0.574
NCI-H2087	0.758
SK-MES-1	0.285

Cell Line	relative viability
H3255	0.461
COR-L23	0.424
COR-L 105	0.362
IA-LM	0.342
LOU-NH91	0.491
ChaGo-K-1	0.765
NCI-H2170	0.285
NCI-H2405	0.31
HOP-62	0.76
HCC-44	0.416
A549	0.522
NCI-H2009	0.71
NCI-H661	0.326
NCI-H1299	0.615
CAL-12T	0.395
NCI-H2228	0.368
NCI-H2023	0.194
NCI-H1563	0.617

same assay, conditions: first compound 0.253 µM

Cell Line	relative viability
NCI-H727	0.302
EBC-1	0.295
NCI-H1703	0.239
NCI-H1993	0.779
SW 1573	0.459
NCI-H838	0.464
LCLC-103H	0.627
NCI-H520	0.197
NCI-H2126	0.513
EMC-BAC-2	0.51
NCI-H2085	0.359
Calu-6	0.85
HCC-366	0.106
NCI-H1666	0.547
NCI-H596	0.349
NCI-H2087	0.723
SK-MES-1	0.34

Cell Line	relative viability
H3255	0.434
COR-L23	0.642
COR-L 105	0.388
IA-LM	0.247
LOU-NH91	0.513
NCI-H2170	0.261
HOP-62	0.741
HCC-44	0.589
A549	0.472
NCI-H2009	0.765
NCI-H661	0.353
SK-LU-1	0.535
NCI-H1299	0.684
NCI-H2228	0.691
NCI-H2023	0.227
NCI-H1563	0.575

same assay, conditions: first compound 0.8 µM

Cell Line	relative viability
NCI-H727	0.356
NCI-H1650	0.664
EBC-1	0.209
NCI-H1703	0.233
SW 1573	0.445
NCI-H838	0.442
LCLC-103H	0.636
NCI-H520	0.27
NCI-H2126	0.494
EMC-BAC-2	0.505
NCI-H2085	0.404
Calu-6	0.846
HCC-366	0.214
NCI-H1666	0.558
NCI-H596	0.508
LK-2	0.657
NCI-H2087	0.91
SK-MES-1	0.33
H3255	0.453

Cell Line	relative viability
COR-L23	0.765
COR-L 105	0.428
IA-LM	0.338
LOU-NH91	0.516
ChaGo-K-1	1.15
NCI-H2170	0.307
NCI-H2405	0.559
HOP-62	0.8
HCC-44	0.567
A549	0.523
NCI-H2009	0.871
NCI-H661	0.484
SK-LU-1	0.622
NCI-H1299	0.742
CAL-12T	0.571
NCI-H2228	0.266
NCI-H2023	0.233
NCI-H1563	0.646

same assay, conditions: first compound 2.53 µM

Cell Line	relative viability
NCI-H1650	0.398
EBC-1	0.197
NCI-H1703	0.204
SW 1573	0.304
NCI-H838	0.339
LCLC-103H	0.439
NCI-H2126	0.368
EMC-BAC-2	0.374
NCI-H2085	0.33
Calu-6	0.673
HCC-366	0.127
NCI-H1666	0.437
NCI-H596	0.343
LK-2	0.515
NCI-H2087	0.611
SK-MES-1	0.202
H3255	0.305

Cell Line	relative viability
COR-L23	0.534
COR-L 105	0.265
LOU-NH91	0.48
ChaGo-K-1	1.01
NCI-H2170	0.258
NCI-H2405	0.381
HOP-62	0.556
HCC-44	0.452
A549	0.264
NCI-H2009	0.516
SK-LU-1	0.461
NCI-H1299	0.394
CAL-12T	0.291
NCI-H2228	0.387
NCI-H2023	0.132
NCI-H1563	0.677

same assay, conditions: first compound 8 µM

Cell Line	relative viability
NCI-H727	0.404
NCI-H1650	0.843
EBC-1	0.292
NCI-H1703	0.191
NCI-H1993	0.769
SW 1573	0.447
NCI-H838	0.487
LCLC-103H	0.591
NCI-H520	0.316
NCI-H2126	0.483
EMC-BAC-2	0.555

— the supplement of paper PMC10307832
